Experimental data: article PMC7714403 (JCI Insight, 2020)

Columns and labels:
NEK1 = NEK1 (Homo sapiens, UniProt Q96PY6); assay: KiNativ, OCI cells live cell; assay type: cell-based; conditions: 2 h, labeling site Lys2, peptide […]
ULK1 = target: T1, ULK1 (Homo sapiens, UniProt O75385); assay: KiNativ, OCI cells live cell; assay type: cell-based
T1 sequence (O75385 1-1050): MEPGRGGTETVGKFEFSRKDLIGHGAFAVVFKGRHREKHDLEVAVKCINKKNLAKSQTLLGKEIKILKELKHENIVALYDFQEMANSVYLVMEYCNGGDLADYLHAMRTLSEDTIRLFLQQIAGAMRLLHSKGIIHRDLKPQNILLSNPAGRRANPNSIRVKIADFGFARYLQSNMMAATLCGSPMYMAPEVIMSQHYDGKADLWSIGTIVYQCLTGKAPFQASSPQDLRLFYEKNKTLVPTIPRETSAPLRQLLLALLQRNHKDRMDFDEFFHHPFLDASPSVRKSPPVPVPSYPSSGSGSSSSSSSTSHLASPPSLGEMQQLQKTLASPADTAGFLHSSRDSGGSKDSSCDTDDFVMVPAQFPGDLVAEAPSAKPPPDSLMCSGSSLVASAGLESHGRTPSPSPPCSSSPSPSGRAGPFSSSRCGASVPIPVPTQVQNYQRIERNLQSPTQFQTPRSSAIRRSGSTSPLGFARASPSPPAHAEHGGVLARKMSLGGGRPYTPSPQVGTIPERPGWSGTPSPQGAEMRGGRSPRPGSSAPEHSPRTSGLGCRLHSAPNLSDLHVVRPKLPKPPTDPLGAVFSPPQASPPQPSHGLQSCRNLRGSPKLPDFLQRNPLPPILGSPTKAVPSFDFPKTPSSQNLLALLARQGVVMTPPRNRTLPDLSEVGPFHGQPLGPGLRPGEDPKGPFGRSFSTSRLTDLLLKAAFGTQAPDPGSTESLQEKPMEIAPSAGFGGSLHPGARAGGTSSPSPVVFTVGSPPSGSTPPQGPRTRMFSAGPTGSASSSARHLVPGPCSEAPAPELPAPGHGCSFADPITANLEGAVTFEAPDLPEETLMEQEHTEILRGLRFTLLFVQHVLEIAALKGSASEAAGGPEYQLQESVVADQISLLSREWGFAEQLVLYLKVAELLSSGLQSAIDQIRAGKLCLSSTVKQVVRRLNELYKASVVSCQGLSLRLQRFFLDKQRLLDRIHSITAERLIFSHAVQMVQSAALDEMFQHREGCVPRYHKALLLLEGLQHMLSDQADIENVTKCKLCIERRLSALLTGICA

ACK1 = ACK1 (Homo sapiens, UniProt Q07912); assay: Kinase assay by Reaction Biology; assay type: biochemical; design: purchased Eurofins DiscoverX
Sequence of ACK1 (Q07912 whole entry): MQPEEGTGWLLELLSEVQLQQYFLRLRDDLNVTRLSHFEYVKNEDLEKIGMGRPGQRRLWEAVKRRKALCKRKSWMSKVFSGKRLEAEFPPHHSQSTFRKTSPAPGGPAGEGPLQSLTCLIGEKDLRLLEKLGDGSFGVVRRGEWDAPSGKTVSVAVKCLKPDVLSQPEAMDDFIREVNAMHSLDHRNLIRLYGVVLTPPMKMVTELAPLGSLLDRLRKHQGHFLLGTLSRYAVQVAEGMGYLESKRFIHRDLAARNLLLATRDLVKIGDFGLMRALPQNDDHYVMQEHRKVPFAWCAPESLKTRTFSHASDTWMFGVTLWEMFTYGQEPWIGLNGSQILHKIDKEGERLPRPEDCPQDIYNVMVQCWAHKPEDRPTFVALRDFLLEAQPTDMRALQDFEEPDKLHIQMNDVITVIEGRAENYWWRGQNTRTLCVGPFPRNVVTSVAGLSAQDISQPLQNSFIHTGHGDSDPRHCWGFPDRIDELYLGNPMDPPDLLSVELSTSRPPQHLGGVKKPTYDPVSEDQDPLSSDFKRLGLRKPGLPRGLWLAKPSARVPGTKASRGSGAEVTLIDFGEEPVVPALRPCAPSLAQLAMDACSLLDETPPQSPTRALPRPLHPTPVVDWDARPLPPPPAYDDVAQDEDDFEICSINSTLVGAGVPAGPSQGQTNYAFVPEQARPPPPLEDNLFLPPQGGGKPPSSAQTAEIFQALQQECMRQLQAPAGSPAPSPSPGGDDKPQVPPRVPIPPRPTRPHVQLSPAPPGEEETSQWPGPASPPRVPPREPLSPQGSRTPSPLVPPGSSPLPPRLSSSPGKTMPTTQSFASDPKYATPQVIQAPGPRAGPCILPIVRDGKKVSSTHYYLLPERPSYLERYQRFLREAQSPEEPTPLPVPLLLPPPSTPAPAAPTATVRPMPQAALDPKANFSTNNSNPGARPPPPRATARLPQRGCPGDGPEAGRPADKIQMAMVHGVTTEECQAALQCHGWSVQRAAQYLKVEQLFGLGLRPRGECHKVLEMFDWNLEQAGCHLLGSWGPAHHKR

[1] = tested on: murine FLT3-ITD+/– IDH2-R140Q+/– AML cells; assay: Primary transplantation model of murine AML cells; assay type: in vivo, NSG mice
Experimental: Engraftment and growth of leukemic cells were monitored by noninvasive bioluminescence imaging in cell line xenograft models, as previously done ([47]). Details on the cell engraftment and dosing in mouse models are provided in the Supplemental Methods.
Luc+ or MOLM13-Res -Luc+ cells, 0.5 million OCI-AML3 -Luc+ cells, and 10,000 Ba/F3-FLT3-ITD/F691L-GFP+ cells. Weekly tumor engraftment of cell line xenograft models were assessed after injection of D-luciferin (150mg/kg i.p.; Gold Biotechnology, Inc, St. Louis, MO) on Xenogen IVIS-200 imaging system (Perkin Elmer, Waltham, MA) or GFP monitoring by peripheral blood via BD LSR II flow cytometer (BD Biosciences, San Jose, CA). Signal intensity was analyzed using Living Image Software (PerkinElmer) or FlowJo v10.0.08 software (FlowJo, LLC, Ashland, OR). Mice were randomized to treatment groups based on signal intensity and leukemia burden. Drug treatments were started on days 3, 7, or 13 after cell injection in OCI-AML3, MOLM13, and MOLM13-Res xenografts, respectively. In murine AML transplantation model, 1 million FLT3-ITD+/-/IDH2-R140Q+/- splenocytes (in house colony) were intravenously injected in male NSG mice. […]
At indicated time points, cells were collected and washed with PBS. CD11b expression was measured using anti-CD11b -APC antibody (BioLegend, San Diego, CA). […] CD11b expression and apoptosis were measured by BD LSR II flow cytometer. […]

PAK2 = PAK2 (Homo sapiens, UniProt Q13177); assay: KiNativ, OCI cells live cell; assay type: cell-based; conditions: 2 h
Sequence of PAK2 (Q13177 whole entry): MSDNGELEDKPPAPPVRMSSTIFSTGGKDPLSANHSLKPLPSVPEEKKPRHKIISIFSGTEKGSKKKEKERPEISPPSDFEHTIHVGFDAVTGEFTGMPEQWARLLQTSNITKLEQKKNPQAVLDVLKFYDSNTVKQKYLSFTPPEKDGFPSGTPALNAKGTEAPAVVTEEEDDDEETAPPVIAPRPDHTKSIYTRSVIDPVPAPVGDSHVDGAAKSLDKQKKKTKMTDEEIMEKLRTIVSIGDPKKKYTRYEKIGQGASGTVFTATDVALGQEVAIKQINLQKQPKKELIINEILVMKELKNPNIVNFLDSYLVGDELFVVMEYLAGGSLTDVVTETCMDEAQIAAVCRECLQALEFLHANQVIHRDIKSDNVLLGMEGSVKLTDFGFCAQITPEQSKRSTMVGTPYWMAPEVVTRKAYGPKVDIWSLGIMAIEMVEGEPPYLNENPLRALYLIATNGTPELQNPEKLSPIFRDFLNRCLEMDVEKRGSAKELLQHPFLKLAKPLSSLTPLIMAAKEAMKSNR

MST2 = MST2 (Homo sapiens, UniProt Q13188); assay: KiNativ, OCI cells live cell; assay type: cell-based; conditions: 2 h, labeling site Lys1, peptide […]
Sequence of MST2 (Q13188 whole entry): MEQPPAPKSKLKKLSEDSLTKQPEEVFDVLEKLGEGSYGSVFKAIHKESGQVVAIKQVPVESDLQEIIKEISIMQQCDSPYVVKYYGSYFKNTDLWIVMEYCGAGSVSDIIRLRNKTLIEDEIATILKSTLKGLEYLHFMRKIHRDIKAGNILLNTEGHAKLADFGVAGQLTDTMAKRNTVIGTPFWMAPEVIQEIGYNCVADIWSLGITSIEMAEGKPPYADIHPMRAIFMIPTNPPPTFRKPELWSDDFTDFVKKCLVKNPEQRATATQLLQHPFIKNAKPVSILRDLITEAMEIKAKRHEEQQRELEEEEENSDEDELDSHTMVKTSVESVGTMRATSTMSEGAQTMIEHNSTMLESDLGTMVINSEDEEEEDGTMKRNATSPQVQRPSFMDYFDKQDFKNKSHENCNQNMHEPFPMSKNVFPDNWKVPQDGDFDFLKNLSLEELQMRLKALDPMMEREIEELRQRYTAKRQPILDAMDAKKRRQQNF

[2] = tested on: MV4-11, MOLM13, and MOLM13-RES cells; assay: Apoptosis assay (annexin V); assay type: cell-based, human; conditions: 20 nM, 24 and 48 hours
Experimental: (§1) Apoptosis and CD11b expression assays
(§2) At indicated time points, cells were collected and washed with PBS. CD11b expression was measured using anti-CD11b -APC antibody (BioLegend, San Diego, CA). Each sample was suspended in 100uL of FACS buffer (PBS + 4% FBS) with 1uL of antibody, incubated on ice for 15 minutes in the dark and washed once in PBS. DAPI (final concentration 1ug/mL [ThermoFisher Scientific]) was added to each sample as a viability dye. For apoptosis assay, cells were incubated with annexin V-APC (BioLegend) according to manufacturer’s instructions. CD11b expression and apoptosis were measured by BD LSR II flow cytometer. Two-color cytometry was performed, and data were […]
(§3) points, cells were collected and washed with 0.1% EDTA PBS (Ricca Chemical Company, Arlington, TX) followed by only PBS. Cells were then fixed on ice with ice-cold 70% ethanol for 30 minutes . Cells were either stored at -20°C for up to 1 month or processed immediately. Cells were spun down at 450 x g for 10 minutes and stained

OCI-AML3 cells = assay: Apoptosis assay (annexin V); assay type: cell-based, human; conditions: 20–50 nM, 72 hours
Experimental: as §1, §2, §3

CCRK = CCRK (Homo sapiens, UniProt Q8IZL9); assay: KiNativ, OCI cells live cell; assay type: cell-based; conditions: 2 h, labeling site Lys2, peptide […]
Sequence of CCRK (Q8IZL9 whole entry): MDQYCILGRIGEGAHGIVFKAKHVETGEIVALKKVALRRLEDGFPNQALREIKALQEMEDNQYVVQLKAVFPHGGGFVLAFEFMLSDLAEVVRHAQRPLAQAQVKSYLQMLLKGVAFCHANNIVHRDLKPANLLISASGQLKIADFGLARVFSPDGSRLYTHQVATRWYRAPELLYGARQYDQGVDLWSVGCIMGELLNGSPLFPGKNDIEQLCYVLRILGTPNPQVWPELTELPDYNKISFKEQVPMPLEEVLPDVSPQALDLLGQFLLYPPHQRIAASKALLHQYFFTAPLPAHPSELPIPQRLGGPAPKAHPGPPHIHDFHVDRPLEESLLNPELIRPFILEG

p70S6K = p70S6K (Homo sapiens, UniProt P23443); assay: KiNativ, OCI cells live cell; assay type: cell-based; conditions: 2 h, labeling site Lys2, peptide […]
Sequence of p70S6K (P23443 whole entry): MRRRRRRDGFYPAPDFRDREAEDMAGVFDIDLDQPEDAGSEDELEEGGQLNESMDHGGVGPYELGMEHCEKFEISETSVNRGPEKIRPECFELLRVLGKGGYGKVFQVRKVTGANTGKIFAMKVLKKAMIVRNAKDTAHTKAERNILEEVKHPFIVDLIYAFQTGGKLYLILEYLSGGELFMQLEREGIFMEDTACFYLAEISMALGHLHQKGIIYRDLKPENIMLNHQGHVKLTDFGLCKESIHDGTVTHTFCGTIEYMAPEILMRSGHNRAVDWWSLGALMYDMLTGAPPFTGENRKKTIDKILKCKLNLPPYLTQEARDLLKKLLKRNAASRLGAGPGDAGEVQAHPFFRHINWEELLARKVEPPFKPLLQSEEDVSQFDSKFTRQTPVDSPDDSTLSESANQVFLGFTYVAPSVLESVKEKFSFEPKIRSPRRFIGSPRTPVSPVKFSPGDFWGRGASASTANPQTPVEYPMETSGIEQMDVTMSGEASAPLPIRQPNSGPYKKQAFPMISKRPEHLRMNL

CHEK1 = target: T2, CHEK1 (Homo sapiens, UniProt O14757); assay: KdELECT binding assay
T2 construct: purchased Eurofins DiscoverX
T2 sequence (O14757 whole entry): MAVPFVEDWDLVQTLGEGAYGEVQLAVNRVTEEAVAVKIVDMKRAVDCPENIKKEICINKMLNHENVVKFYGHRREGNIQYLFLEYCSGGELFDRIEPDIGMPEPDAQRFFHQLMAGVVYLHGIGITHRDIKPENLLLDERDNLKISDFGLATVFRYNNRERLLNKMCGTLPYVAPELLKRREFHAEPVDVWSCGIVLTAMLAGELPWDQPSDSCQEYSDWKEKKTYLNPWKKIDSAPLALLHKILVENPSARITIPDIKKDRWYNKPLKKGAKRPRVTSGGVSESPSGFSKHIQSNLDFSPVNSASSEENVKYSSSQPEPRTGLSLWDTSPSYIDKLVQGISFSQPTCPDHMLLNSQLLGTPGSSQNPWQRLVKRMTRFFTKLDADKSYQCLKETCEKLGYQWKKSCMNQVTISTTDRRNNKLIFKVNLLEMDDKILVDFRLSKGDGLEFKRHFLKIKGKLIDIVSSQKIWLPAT

Sequence of NEK1 (Q96PY6 whole entry): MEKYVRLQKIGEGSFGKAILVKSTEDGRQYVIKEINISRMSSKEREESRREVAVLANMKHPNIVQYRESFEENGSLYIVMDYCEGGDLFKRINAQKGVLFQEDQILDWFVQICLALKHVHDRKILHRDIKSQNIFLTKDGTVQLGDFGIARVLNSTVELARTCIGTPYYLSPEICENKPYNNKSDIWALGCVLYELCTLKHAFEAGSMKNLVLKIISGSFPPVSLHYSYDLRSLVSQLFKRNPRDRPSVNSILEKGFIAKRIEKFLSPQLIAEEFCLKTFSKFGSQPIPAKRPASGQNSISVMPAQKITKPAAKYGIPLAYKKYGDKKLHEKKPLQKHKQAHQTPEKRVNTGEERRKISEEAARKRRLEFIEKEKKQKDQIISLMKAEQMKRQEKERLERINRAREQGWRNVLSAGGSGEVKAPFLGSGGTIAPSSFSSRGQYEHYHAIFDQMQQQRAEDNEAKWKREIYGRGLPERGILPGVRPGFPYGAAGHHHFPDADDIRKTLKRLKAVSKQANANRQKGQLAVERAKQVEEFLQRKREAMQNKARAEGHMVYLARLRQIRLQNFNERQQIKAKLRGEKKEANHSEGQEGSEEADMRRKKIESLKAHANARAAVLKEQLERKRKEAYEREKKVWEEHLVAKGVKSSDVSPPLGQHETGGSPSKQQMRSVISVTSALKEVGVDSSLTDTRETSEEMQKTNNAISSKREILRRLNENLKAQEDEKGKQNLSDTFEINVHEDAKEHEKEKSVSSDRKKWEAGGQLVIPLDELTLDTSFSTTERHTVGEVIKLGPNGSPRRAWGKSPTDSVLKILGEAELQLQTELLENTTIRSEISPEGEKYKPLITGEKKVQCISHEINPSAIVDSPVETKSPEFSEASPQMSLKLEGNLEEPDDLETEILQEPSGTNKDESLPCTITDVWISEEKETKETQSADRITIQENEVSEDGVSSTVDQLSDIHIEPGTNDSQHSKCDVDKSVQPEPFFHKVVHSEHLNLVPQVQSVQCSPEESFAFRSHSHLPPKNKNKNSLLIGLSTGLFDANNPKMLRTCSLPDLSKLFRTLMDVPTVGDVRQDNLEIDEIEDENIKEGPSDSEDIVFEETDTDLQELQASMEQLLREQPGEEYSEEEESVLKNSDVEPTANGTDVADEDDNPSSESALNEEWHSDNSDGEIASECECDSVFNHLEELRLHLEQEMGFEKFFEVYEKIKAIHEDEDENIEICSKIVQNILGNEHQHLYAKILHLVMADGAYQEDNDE

Molecule CN1CCN(Cc2ccc(Nc3ncc(Cl)c(Nc4ccccc4S(=O)(=O)N(C)C)n3)cc2)CC1 [TP-0903] has an inhibition at 0.1 µM (NEK1) of -4.4%, an Inhibition (ULK1; labeling site Lys1, peptide HDLEVAVKCINKK) of 23.3% and an Inhibition (ULK1; labeling site Lys2, peptide DLKPQNILLSNPAGR) of 59.5%. The IC50 (ACK1) was 30.7 nM, the “Spleen weight at study endpoint (mean ± SD)” value ([1]; 40 mg/kg once daily) was 50 ± 13 mg and the “Survival prolonged compared with vehicle” value ([1]; 40 mg/kg once daily up to 6 weeks) was 9 days. It also gave an inhibition at 0.1 µM (PAK2; labeling site Lys1, peptide IGQGASGTVFTATDVALGQEVAIKQINLQK) of -53.1%, an inhibition at 0.1 µM (PAK2; labeling site Other, peptide KNPQAVLDVLKFYDSNTVK) of -21.3% and an inhibition at 0.1 µM (MST2) of 7.3%. For the same molecule, the Apoptosis [2] was “significant apoptosis”, the Apoptosis (OCI-AML3 cells) was “significant apoptosis” and the inhibition at 0.1 µM (CCRK) was 58.1%. For the same molecule, the inhibition at 0.1 µM (p70S6K) was 6.3% and the Kd (CHEK1) was 24 nM.
